# Laboratory results taken from patent US10745382B2 (BRISTOL-MYERS SQUIBB COMPANY, priority 2015, dated 2020).
# Target: T1, PD-1/PD-L1 (Homo sapiens, UniProt Q9NZQ7)
# T1 construct: made in house; host or cells: HEK293T
# Assay: PD-1/PD-L1 Homogenous Time-Resolved Fluorescence (HTRF) binding assay
# Conditions: PD-L1-His 10 nM, PD-1-Ig 20 nM; numeric IC50; read-out: Range or IC50
# Method: The ability of the compounds of formula (I) to bind to PD-L1 was investigated using a PD-1/PD-L1 Homogenous Time-Resolved Fluorescence (HTRF) binding assay.
# Homogenous Time-Resolved Fluorescence (HTRF) Binding Assay.
# All binding studies were performed in an HTRF assay buffer consisting of dPBS supplemented with 0.1% […] bovine serum albumin and 0.05% (v/v) Tween-20. […] HTRF detection was achieved using europium crypate-labeled anti-Ig (1 nM final) and allophycocyanin (APC) labeled anti-His (20 nM final). Antibodies were diluted in HTRF detection buffer and 5 μl was dispensed on top of the binding reaction. […] Additional binding assays were established between the human proteins PD-1-Ig/PD-L2-His (20 & 5 nM, respectively) and CD80-His/PD-L1-Ig (100 & 10 nM, respectively). […]
# T1 sequence (Q9NZQ7 with tags, fused parts or gaps): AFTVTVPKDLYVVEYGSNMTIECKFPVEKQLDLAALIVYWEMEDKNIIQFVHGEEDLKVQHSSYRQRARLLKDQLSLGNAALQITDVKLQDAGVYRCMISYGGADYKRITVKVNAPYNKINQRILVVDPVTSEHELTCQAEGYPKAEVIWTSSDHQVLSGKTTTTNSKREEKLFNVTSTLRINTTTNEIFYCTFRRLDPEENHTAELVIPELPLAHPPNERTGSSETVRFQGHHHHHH
row,Compound,IC50
1,"Cc1c(COc2cc(OCc3cncc(C#N)c3)c(CN[C@@H](CO)C(=O)O)cc2Cl)cccc1-c1ccc2c(c1C)OCCO2 [Example 3043, (2S)-2-((5-chloro-2-((5-cyanopyridin-3-yl)methoxy)-4-((2-methyl-3-(5-methyl-2,3-dihydrobenzo[b][1,4]dioxin-6-yl)benzyl)oxy)benzyl)amino)-3-hydroxypropanoic Acid]",3 nM

# Same assay, conditions: PD-L1-His 10 nM, PD-1-Ig 20 nM; value given as range class; read-out: Range or IC50
row,Compound,IC50
1,"Cc1c(COc2cc(OCc3cncc(S(C)(=O)=O)c3)c(CN[C@H](CO)C(=O)O)cc2Cl)cccc1-c1cccc(OCCCN2CC[C@@H](O)C2)c1C [Example 1025, (R)-2-((5-chloro-4-((3′-(3-((R)-3-hydroxypyrrolidin-1-yl)propoxy)-2,2′-dimethyl-[1,1′-biphenyl]-3-yl)methoxy)-2-((5-(methylsulfonyl)pyridin-3-yl)methoxy)benzyl)amino)-3-hydroxypropanoic Acid]",0.21 to 10 nM
2,"N#Cc1cncc(COc2cc(OCc3cccc(-c4cccc(OCCCNC[C@H](O)CO)c4Cl)c3Cl)c(Cl)cc2CN2CCCC[C@H]2C(=O)O)c1 [Example 2049, (S)-1-(5-chloro-2-((5-cyanopyridin-3-yl)methoxy)-4-((2,2′-dichloro-3′-(3-(((S)-2,3-dihydroxypropyl)amino)propoxy)-[1,1′-biphenyl]-3-yl)methoxy)benzyl)piperidine-2-carboxylic Acid]",0.21 to 10 nM
3,"CC(=O)N[C@H]1CCN(CCCOc2cccc(-c3cccc(COc4cc(OCc5cncc(C#N)c5)c(CNC(CO)CO)cc4Cl)c3Cl)c2C)C1 [Example 2311, (S)—N-(1-(3-((2′-chloro-3′-((2-chloro-5-((5-cyanopyridin-3-yl)methoxy)-4-(((1,3-dihydroxypropan-2-yl)amino)methyl)phenoxy)methyl)-2-methyl-[1,1′-biphenyl]-3-yl)oxy)propyl)pyrrolidin-3-yl)acetamide]",0.21 to 10 nM
4,"Cc1c(COc2cc(OCc3cncc(C(N)=O)c3)c(CNC[C@H](O)CO)cc2Cl)cccc1-c1cccc(OCCCO)c1Cl [Example 2117, (S)-5-((4-chloro-5-((2′-chloro-3′-(3-hydroxypropoxy)-2-methyl-[1,1′-biphenyl]-3-yl)methoxy)-2-(((2,3-dihydroxypropyl)amino)methyl)phenoxy)methyl)nicotinamide]",0.21 to 10 nM
5,"Cc1c(COc2cc(OCc3cncc(C#N)c3)c(CN[C@H](C(=O)O)[C@@H](C)O)cc2Cl)cccc1-c1cccc(OCCCN2CC[C@@H](O)C2)c1C [Example 4148, (5-chloro-2-((5-cyanopyridin-3-yl)methoxy)-4-((3′-(3-((R)-3-hydroxypyrrolidin-1-yl)propoxy)-2,2′-dimethyl-[1,1′-biphenyl]-3-yl)methoxy)benzyl)-L-threonine]",0.21 to 10 nM
6,"Cc1cc(OCCCN2CC[C@@H](O)C2)ccc1-c1cccc(COc2cc(OCc3cncc(C#N)c3)c(CN3CCCC[C@H]3C(=O)O)cc2Cl)c1C [Example 1071, (S)-1-(5-chloro-2-((5-cyanopyridin-3-yl)methoxy)-4-((4′-(3-((R)-3-hydroxypyrrolidin-1-yl)propoxy)-2,2′-dimethyl-[1,1′-biphenyl]-3-yl)methoxy)benzyl)piperidine-2-carboxylic Acid]",0.21 to 10 nM
7,"C=CC(=O)NCCCOc1cccc(-c2cccc(COc3cc(OCc4cncc(C#N)c4)c(CN4CCCC[C@H]4C(=O)O)cc3Cl)c2C)c1 [Example 1020, (S)-1-(4-((3′-(3-acrylamidopropoxy)-2-methyl-[1,1′-biphenyl]-3-yl)methoxy)-5-chloro-2-((5-cyanopyridin-3-yl)methoxy)benzyl)piperidine-2-carboxylic Acid]",10 to 100 nM
8,"Cc1c(COc2cc(OCc3cncc(C#N)c3)c(CN3CCCC[C@H]3C(=O)O)cc2Cl)cccc1-c1ccc2c(c1)OC(CCN1CC[C@@H](O)C1)CO2 (single isomer, unassigned) [Example 1506]",0.21 to 10 nM
9,"Cc1c(COc2cc(OCc3cncc(C#N)c3)c(CN3CCCC[C@H]3C(=O)O)cc2Cl)cccc1-c1cccc(OCCCNCCc2ccncc2)c1C [Example 2210, (2S)-1-(5-chloro-2-((5-cyanopyridin-3-yl)methoxy)-4-((2,2′-dimethyl-3′-(3-(2-(pyridin-4-yl)ethylamino)propoxy)biphenyl-3-yl)methoxy)benzyl)piperidine-2-carboxylic Acid]",0.21 to 10 nM
10,"COC(=O)C1(O)CCN(CCCOc2cccc(-c3cccc(COc4cc(OCc5cncc(C#N)c5)c(CN[C@H](CO)C(=O)O)cc4Cl)c3C)c2C)CC1 [Example 1029, (R)-2-((5-chloro-2-((5-cyanopyridin-3-yl)methoxy)-4-((3′-(3-(4-hydroxy-4-(methoxycarbonyl)piperidin-1-yl)propoxy)-2,2′-dimethyl-[1,1′-biphenyl]-3-yl)methoxy)benzyl)amino)-3-hydroxypropanoic Acid]",0.21 to 10 nM
11,"Cc1c(COc2cc(OCc3cncc(C#N)c3)c(CN3CCCC[C@H]3C(=O)O)cc2Cl)cccc1-c1cccc(OCCCN2CC[C@@](O)(c3ccc(Cl)cc3)[C@](C)(O)C2)c1Cl [Example 1088, (S)-1-(5-chloro-4-((2′-chloro-3′-(3-((3R,4R)-4-(4-chlorophenyl)-3,4-dihydroxy-3-methylpiperidin-1-yl)propoxy)-2-methyl-[1,1′-biphenyl]-3-yl)methoxy)-2-((5-cyanopyridin-3-yl)methoxy)benzyl)piperidine-2-carboxylic Acid]",0.21 to 10 nM
12,"Cc1c(COc2cc(OCc3cncc(C#N)c3)c(CN3CCN(CCO)CC3)cc2Cl)cccc1-c1cccc(OCCCN2CCN(CCO)CC2)c1C [Example 2258, 5-((4-chloro-2-((4-(2-hydroxyethyl)piperazin-1-yl)methyl)-5-((3′-(3-(4-(2-hydroxyethyl)piperazin-1-yl)propoxy)-2,2′-dimethylbiphenyl-3-yl)methoxy)phenoxy)methyl)nicotinonitrile]",0.21 to 10 nM
13,"Cc1c(COc2cc(OCc3cncc(C#N)c3)c(CN3CCCC[C@H]3C(=O)O)cc2Cl)cccc1-c1ccc2c(c1)OC(CCN1CC[C@@H](O)C1)CO2 (mixture of isomers) [Example 1504, (2S)-1-(5-chloro-2-((5-cyanopyridin-3-yl)methoxy)-4-((3-(3-(2-((R)-3-hydroxypyrrolidin-1-yl)ethyl)-2,3-dihydrobenzo[b][1,4]dioxin-6-yl)-2-methylbenzyl)oxy)benzyl)piperidine-2-carboxylic acid]",0.21 to 10 nM
14,"Cc1c(COc2cc(OCc3cncc(C#N)c3)c(CNC(C)(CO)CO)cc2Cl)cccc1-c1cccc(OCCCNC(C)(CO)CO)c1Cl [Example 2102, 5-((4-chloro-5-((2′-chloro-3′-(3-((1,3-dihydroxy-2-methylpropan-2-yl)amino)propoxy)-2-methyl-[1,1′-biphenyl]-3-yl)methoxy)-2-(((1,3-dihydroxy-2-methylpropan-2-yl)amino)methyl)phenoxy)methyl)nicotinonitrile]",0.21 to 10 nM
15,"Cc1c(COc2cc(OCc3cncc(C#N)c3)c(CN3CCCC[C@H]3C(=O)O)cc2Cl)cccc1-c1cccc(C(=O)NCCN2CCCC2)c1C [Example 4002, (S)-1-(5-chloro-2-((5-cyanopyridin-3-yl)methoxy)-4-((2,2′-dimethyl-3′-((2-(pyrrolidin-1-yl)ethyl)carbamoyl)-[1,1′-biphenyl]-3-yl)methoxy)benzyl)piperidine-2-carboxylic Acid]",10 to 100 nM
16,"Cc1c(COc2cc(OCc3cncc(C#N)c3)c(CN[C@H](CO)C(=O)O)cc2Cl)cccc1-c1cccc(OCCCN2CCC(O)CC2)c1C [Example 1060, (R)-2-((5-chloro-2-((5-cyanopyridin-3-yl)methoxy)-4-((3′-(3-(4-hydroxypiperidin-1-yl)propoxy)-2,2′-dimethyl-[1,1′-biphenyl]-3-yl)methoxy)benzyl)amino)-3-hydroxypropanoic Acid]",0.21 to 10 nM
17,"Cc1c(COc2cc(OCc3cncc(C#N)c3)c(CNCCc3ccncc3)cc2Cl)cccc1-c1cccc(OCCCNCCc2ccncc2)c1Cl [Example 2010, 5-((4-chloro-5-((2′-chloro-2-methyl-3′-(3-((2-(pyridin-4-yl)ethyl)amino)propoxy)-[1,1′-biphenyl]-3-yl)methoxy)-2-(((2-(pyridin-4-yl)ethyl)amino)methyl)phenoxy)methyl)nicotinonitrile]",0.21 to 10 nM
18,"Cc1c(COc2cc(OCc3cncc(C#N)c3)c(CNC(C)(CO)CO)cc2Cl)cccc1-c1cccc(C(=O)N2CCCC2)c1C [Example 4039, 5-((4-chloro-2-(((1,3-dihydroxy-2-methylpropan-2-yl)amino)methyl)-5-((2,2′-dimethyl-3′-(pyrrolidine-1-carbonyl)-[1,1′-biphenyl]-3-yl)methoxy)phenoxy)methyl)nicotinonitrile]",10 to 100 nM
19,"Cc1c(COc2cc(OCc3cncc(C#N)c3)c(CN[C@@](C)(CO)C(=O)O)cc2Cl)cccc1-c1cccc(OCCCN2CCC[C@H](O)C2)c1C [Example 2262, (2S)-2-(5-chloro-2-((5-cyanopyridin-3-yl)methoxy)-4-((3′-(3-((S)-3-hydroxypiperidin-1-yl)propoxy)-2,2′-dimethylbiphenyl-3-yl)methoxy)benzylamino)-3-hydroxy-2-methylpropanoic Acid]",0.21 to 10 nM
20,"Cc1c(COc2cc(OCc3cncc(C#N)c3)c(CN3CCCC[C@H]3C(=O)O)cc2Cl)cccc1-c1cccc(OCCCN2CCO[C@@H](CO)C2)c1C [Example 3047, (S)-1-(5-chloro-2-((5-cyanopyridin-3-yl)methoxy)-4-((3′-(3-((R)-2-(hydroxymethyl)morpholino)propoxy)-2,2′-dimethyl-[1,1′-biphenyl]-3-yl)methoxy)benzyl)piperidine-2-carboxylic Acid]",0.21 to 10 nM
